The values below come from patent publication US20210378240A1, “OXETANYLPHENOXYQUINOLINES AND ANALOGUES” (Bayer Aktiengesellschaft, priority 2018, published 2021).

Method: In table 1, the logP values were determined in accordance with EEC Directive 79/831 Annex V.A8 by HPLC (High Performance Liquid Chromatography) on a reversed-phase column (C 18), using the method to described below:
temperature: 40° C.; mobile phases: 0.1% aqueous formic acid and acetonitrile; linear gradient from 10% acetonitrile to 95% acetonitrile;
Calibration was carried out using unbranched alkan-2-ones (comprising 3 to 16 carbon atoms) with known logP values (determination of the logP values by the retention times using linear interpolation between two successive alkanones). lambda-max-values were determined using UV-spectra from 200 nm to 400 nm and the peak values of the chromatographic signals.

The term chromatographic logP denotes lipophilicity estimated from chromatographic retention. `Cc1nc2c(F)c(F)ccc2cc1Cc1ccccc1Br` [3-(2-bromobenzyl)-7,8-difluoro-2-methylquinoline] gave a chromatographic logP of 4.26.
The compound `O=[N+]([O-])c1cccc(F)c1OC1COC1` [3-(2-fluoro-6-nitrophenoxy)oxetane] had a chromatographic logP of 2.
In turn, `Nc1cccc(F)c1OC1COC1` [3-fluoro-2-(oxetan-3-yloxy)-aniline, 3-fluoro-2-(oxetan-3-yloxy)aniline] returned a chromatographic logP of 1.32.
In the case of `Cc1nc2c(F)c(F)ccc2cc1Oc1ccccc1C1OCC1(C)C` (centres unmarked) [I.01, 3-[2-(3,3-dimethyloxetan-2-yl)phenoxy]-7,8-difluoro-2-methyl-quinoline] it was 4.44; in that of `Cc1nc2c(F)c(F)ccc2cc1Oc1ccccc1C1COC1` [I.02, 7,8-difluoro-2-methyl-3-[2-(oxetan-3-yl)phenoxy]quinoline], 3.33; in that of `Cc1nc2c(F)c(F)ccc2cc1Oc1ccccc1N1CC2(COC2)C1` [I.03, 7,8-difluoro-2-methyl-3-[2-(2-oxa-6-azaspiro[3.3]heptan-6-yl)phenoxy]quinoline], 3.48.
On to `Cc1nc2c(F)c(F)ccc2cc1Cc1ccccc1C1(C)COC1` [I.04, 7,8-difluoro-2-methyl-3-[2-(3-methyloxetan-3-yl)benzyl]quinoline], for which the chromatographic logP worked out at 3.47.
In turn, `Cc1nc2c(F)c(F)ccc2cc1Nc1cccc(F)c1CN1CC(F)(F)C1` [I.10, N-{2-[(3,3-difluoroazetidin-1-yl)methyl]-3-fluorophenyl}-7,8-difluoro-2-methylquinolin-3-amine] gave a chromatographic logP of 4.33.
For `Cc1nc2c(F)c(F)ccc2cc1Cc1ccccc1C#CC1COC1` [I.14, 7,8-difluoro-2-methyl-3-[2-(oxetan-3-ylethynyl)benzyl]quinoline] the value was 3.66.
For `Cc1nc2c(F)c(F)ccc2cc1Nc1cccc(F)c1OC1COC1` [I.15, 7,8-difluoro-N-[3-fluoro-2-(oxetan-3-yloxy)phenyl]-2-methylquinolin-3-amine], the chromatographic logP was found to be 3.28.
On to `Cc1nc2c(F)c(F)ccc2cc1Oc1ccccc1C(O)C(C)(C)CO` (centres unmarked) [IIa.01, 1-{2-[(7,8-difluoro-2-methylquinolin-3-yl)oxy]phenyl}-2,2-dimethylpropane-1,3-diol], for which the chromatographic logP was 2.96.
As to `Cc1nc2c(F)c(F)ccc2cc1Oc1cccc(I)c1C(O)C(C)(C)CO` (centres unmarked) [IIa.02, 1-{2-[(7,8-difluoro-2-methylquinolin-3-yl)oxy]-6-iodophenyl}-2,2-dimethylpropane-1,3-diol], the chromatographic logP came to 3.57.
In the case of `O=Cc1ccccc1Nc1cnc2c(F)cccc2c1` [IV.01, 2-[(8-fluoroquinolin-3-yl)amino]benzaldehyde] it was 2.88.
For the compound `O=Cc1c(F)cccc1Oc1cnc2ccccc2c1` [IV.02, 2-fluoro-6-(quinolin-3-yloxy)benzaldehyde], the chromatographic logP was 2.43.
As for `Cc1nc2ccccc2cc1Oc1cccc(F)c1C=O` [IV.03, 2-fluoro-6-[(2-methylquinolin-3-yl)oxy]benzaldehyde], the chromatographic logP was 2.32.
In the case of `Cc1nc2c(F)c(F)ccc2cc1Oc1ccccc1C=O` [IV.04, 2-[(7,8-difluoro-2-methylquinolin-3-yl)oxy]benzaldehyde] it was 3.21; in that of `Cc1nc2c(F)c(F)ccc2cc1Oc1cccc(F)c1C=O` [IV.05, 2-[(7,8-difluoro-2-methylquinolin-3-yl)oxy]-6-fluorobenzaldehyde], 3.1; in that of `Fc1cccc(Br)c1CN1CC(F)(F)C1` [IX_C, 1-(2-bromo-6-fluorobenzyl)-3,3-difluoroazetidine], 1.89.
`CC1(c2ccccc2CBr)COC1` [XIII.01, 3-[2-(bromomethyl)phenyl]-3-methyloxetane] came in with a chromatographic logP of 2.73.
`CC1(c2ccccc2CO)COC1` [XIV.01, [2-(3-methyloxetan-3-yl)phenyl]methanol] came in with a chromatographic logP of 1.3.
